Measured values: publication PMC12847965 (Nature Communications, 2025)

Target: T1, E. coli GlpG (Escherichia coli, UniProt P09391)
T1 sequence (P09391 1-276): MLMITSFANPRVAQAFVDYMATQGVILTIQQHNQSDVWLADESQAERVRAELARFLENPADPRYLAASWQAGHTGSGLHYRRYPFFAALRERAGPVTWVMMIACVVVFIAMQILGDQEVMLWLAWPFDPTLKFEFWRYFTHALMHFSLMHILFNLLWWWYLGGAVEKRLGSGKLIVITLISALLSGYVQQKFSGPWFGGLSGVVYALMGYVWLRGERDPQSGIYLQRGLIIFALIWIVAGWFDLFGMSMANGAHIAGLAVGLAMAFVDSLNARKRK
Assay: FRET peptide cleavage assay
Type: biochemical

- IC50: 296 µM
SMILES: Cc1ccc(S(=O)(=O)N[C@@H](Cc2ccccc2)C(=O)CCl)cc1 [tosyl phenylalanyl chloromethylketone]
